Test results: patent US5500430A, “Amidic derivatives of glutamic, aspartic and 2-amino adipic acids, a process for preparing same, and anti-gastrin composition containing the derivatives” (Rotta Research Laboratorium S.p.A., priority 1990, dated 1996)

Target: T1, gastrin receptor sites on the cerebral cortex membranes of mice (Mus musculus, UniProt P56481)
T1 construct: Mouse cortical tissue; from tissue; host or cells: mouse cerebral cortex membranes
T1 sequence (P56481 1-453): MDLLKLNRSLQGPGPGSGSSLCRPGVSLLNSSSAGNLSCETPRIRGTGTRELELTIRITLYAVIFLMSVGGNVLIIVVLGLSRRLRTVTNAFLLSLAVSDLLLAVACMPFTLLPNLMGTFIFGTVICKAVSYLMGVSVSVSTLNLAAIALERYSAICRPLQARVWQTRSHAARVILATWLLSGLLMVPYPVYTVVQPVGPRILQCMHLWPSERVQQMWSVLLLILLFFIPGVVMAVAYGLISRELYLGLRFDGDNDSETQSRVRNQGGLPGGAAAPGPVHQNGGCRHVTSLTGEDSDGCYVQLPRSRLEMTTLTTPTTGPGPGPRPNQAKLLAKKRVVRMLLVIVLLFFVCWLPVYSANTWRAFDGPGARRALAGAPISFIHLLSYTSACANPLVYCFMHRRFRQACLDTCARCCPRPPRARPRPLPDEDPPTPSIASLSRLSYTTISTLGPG
Test: Inhibition of the binding of pentagastrin to mouse cortical membranes
Source text: Tests on binding to cerebral cortex membranes of mice
The capacities of some of the compounds of the invention to inhibit the binding of pentagastrin to the gastrin receptor sites on the cerebral cortex membranes of mice was to be evaluated. Pentagastrin tritiate[beta-alanyl-3-3H(N)] was used as the ligand.
Mouse cortical tissue Was homogenised cold in 20 volumes of tris buffer (pH 7.7). After washing and centrifuging, the final pellet was resuspended in 20 volumes of binding buffer containing, inter alia, TRIS, BSA and Bacitracin. 0.4 ml of the membrane thus obtained were then incubated with a radioactive tracer and the compounds under test for 40 minutes at 37° C.
After the supernatant liquid had been removed by centrifuging, the radioactivity associated with the pellet was determined with a liquid scintillator (a beta-counter). The specific binding was the difference between the binding in the absence and in the presence of 10^-5M pentagastrin.

Compound: O=C(O)CC[C@@H](NC(=O)c1cc(Cl)cc(Cl)c1)C(=O)N1CCC2(CCCC2)CC1 [Compound C5]
- IC50 (pentagastrin tritiate ligand, 40 minutes at 37° C., read-out: IC50, inhibition of the binding of pentagastrin): 110 nM
- Activity on the central receptor relative to C-30 (vs C-30): three times less active
